What was measured:
[1] = Comparative pharmacokinetic study, single-dose administration in minipigs; format: in vivo; conditions: male, Göttingen, minipig, plasma
Method: A comparative pharmacokinetic study was then performed by evaluating the plasma concentration profiles of doxophylline and its deuterated analogues after intravenous and oral single-dose administration in mice and minipigs. […] Since the deuterium kinetic isotope effect is often affected by interspecies variability,[28] a PK study was also performed in minipigs. […] A total of 96 CD1 male mice, approximately 6 weeks old and with a body weight of approximately 30 g, were purchased from Envigo RMS srl, (San Pietro al Natisone, UD, Italy). Four males Göttingen minipigs approximately 4-5 months old and weighing 9-11 Kg were purchased from Ellegaard Göttingen Minipigs (Dalmose, Denmark). Protocol for drug administration and blood sampling. Mice. Blood samples were collected under light isoflurane anaesthesia from the sublingual vein at the following time points (n=3): pre-dose and 5, 15, 30 minutes, 1, 2, 4, 8 and 24 hours after i.v. dosing (20 mg/Kg, dose volume 5 mL/Kg) and pre-dose and 15, 30 minutes, 1, 2, 4, 8 and 24 hours after oral gavage dosing (80 mg/Kg, dose volume 5 mL/Kg). Each animal was sampled on each day at a maximum of two alternating time points. Samples were transferred into tubes containing K3EDTA as anticoagulant, centrifuged, and stored at -80 °C. Minipig. Blood samples were collected from the jugular vein at the following time points (n=4): pre-dose and 5, 15, 30 minutes, 1, 2, 4, 8 and 24 hours after i.v. dosing (5 mg/Kg, dose volume 1 mL/Kg) and pre-dose and 15, 30 minutes, 1, 2, 4, 8 and 24 hours after oral gavage dosing (20 mg/Kg, dose volume 4 mL/Kg). Samples were transferred into tubes containing K3EDTA as anticoagulant, centrifuged, and stored at -80 °C. Sample preparation for HPLC-MS analysis. A volume of 50 µL of caffeine solution (1 mg/L in water-methanol 1:1) were added to plasma sample aliquots (50 µL); after the addition of the precipitant solution (100 µL of 10% ice-cold trichloroacetic acid in water), samples were centrifuged at 13,000 rpm for ten minutes and the supernatant injected onto the HPLC system (see supporting information for chromatographic conditions). If the levels of analytes were over range, plasma samples were preventively diluted with blank plasma. Data analysis. Quantification of doxophylline and its deuterated analogues d4 and d7 as well as their main metabolites, 7- theophylline acetic acid (T-COOH), 7-hydroxyethyl theophylline (Eto) and theophylline, was performed by using the calibration curves obtained with the corresponding working standards of the analytes and using caffeine as internal standard. The pharmacokinetic parameters for doxophylline and its deuterated analogues were calculated by plotting the plasma concentration curves versus time obtained from the average values of three animals, using PK Solver 2.0.1 S7

BLM-induced lung injury = experiment: Bleomycin (BLM)-induced lung injury model; format: in vivo; conditions: BLM-treated mice, 80 mg/kg orally daily; for fibrosis: collagen fibers, Masson's Trichrome and Picrosirius red staining, semiquantitative: versus vehicle group
Method: With regard to the BLM-induced lung injury, we treated mice orally with 80 mg/kg doxophylline, d4-doxophylline, or d7-doxophylline daily (Figure 6a). […] Finally, to investigate the fibrosis, we performed a semiquantitative analysis on the Masson’s Trichrome- and Picrosirius red-stained sections in order to evaluate the presence and the packing of collagen fibers. […] Furthermore, an interesting association of the inflammatory infiltrate and stromal remodeling was observed. Indeed, the decrease in the interstitial inflammatory state led to a reduction of fibrosis in the doxophylline- and d7-treated groups, as can be observed in the respective representative images.
Figure 6 Model of pulmonary fibrosis induced by bleomycin. Doxophylline and d7-doxophylline attenuate BLM-induced structural damage and lung fibrosis in mice. (a) Representative scheme of the BLM-induced lung injury model. (b) Total BAL cellularity of sham mice (not treated) and bleomycin-treated mice (treated or not with 80 mg/kg doxophylline, d4-doxophylline, or d7-doxophylline). Results are reported as mean ± SEM of three independent experiments. (c) Wet/dry lung weight ratio of sham and bleomycin-treated mice (treated or not with 80 mg/kg doxophylline, d4-doxophylline, or d7-doxophylline). Results are reported as mean ± SEM of three independent experiments. (d) MPO activity in lungs of sham and bleomycin-treated mice (treated or not with 80 mg/kg doxophylline, d4-doxophylline and d7-doxophylline). Results are reported as mean ± SEM of three independent experiments. (e) Representative images of H&E staining of sham and bleomycin-treated mice (treated or not with 80 mg/kg doxophylline, d4-doxophylline, or d7-doxophylline). (f, g) Representative images of (f) Masson’s trichrome staining and (g) Picrorius red staining of sham and bleomycin-treated mice (treated or not with 80 mg/kg doxophylline, d4-doxophylline, or d7-doxophylline). p values: *, p < 0.05; **, p < 0.01; ***, p < 0.001; ****, p < 0.0001.
8-week-old male C57Bl/6 mice (Envigo, Indianapolis, USA) weighing between 25 and 30 g were used. Animal care was in compliance with Italian regulations on protection of animals used for experimental purposes and were authorized by the Ministry of Health. We administered BLM (0.02U/50µl) by mouse pharyngeal aspiration, under isoflurane ana esthesia.2 Doxophylline, d4 or d7 ([…], solubilized in 0.9% NaCl solution) or saline treatment (vehicle) was given orally (gavage administration) 1 h before BLM treatment, and then once a day thereafter. Mice were euthanized on day 21 following BLM treatment.
BAL was performed through a tracheal cannula using 1 mL aliquots of ice -cold Ca2+/Mg2+-free phosphate-buffered medium (145 mM NaCl, 5 mM KCl, 1.9 mM NaH 2PO4, 9.35 mM Na2HPO4, and 5.5 mM dextrose, pH 7.4). BAL samples were centrifuged at 500× g for 5 min at 4 °C, and cell pellets were washed an d resuspended in phosphate -buffered medium. BAL cells were enumerated by counting on a Hemocytometer the presence of the trypan blue stain.
Myeloperoxidase (MPO) activity, a marker of polymorphonuclear leukocyte (PMN) infiltration, was determined using MPO Colorimetric Activity Assay Kit (Merck Life Science), according to the manufacturer’s protocol. MPO activity was described as the amount of enzyme degrading 1 μM of peroxide/minute at 37°C and was expressed in U/mg of wet tissue.
Evaluation of fluid content in lungs.
The wet lung weight was calculated after harvesting the lungs, without any extraneous tissue. The lung s were subjected for 72 hours at 100°C and the dry weight was measured. Water content was calculated b y subtracting dry weight from wet weight.
Lungs were fixed with 10% buffered formalin at room temperature for 48h, dehydrated in 70% ethanol, and embedded in paraffin with Diapath automatic processor. Sections (4 μm thick) were stained with hae matoxylin and eosin (H&E) according to standard protocol and samples were mounted in Eukitt (Bio -Optica). To […]

Row | Compound | AUC(0-t) ([1]; intravenous, 5 mg/kg) | Cmax ([1]; intravenous, 5 mg/kg) | clearance ([1]; intravenous, 5 mg/kg) | half-life ([1]; intravenous, 5 mg/kg) | AUC(0-t) ([1]; oral, 20 mg/kg) | CL/F ([1]; oral, 20 mg/kg) | Cmax ([1]; oral, 20 mg/kg) | half-life ([1]; oral, 20 mg/kg) | accumulation of immune cells in bronchoalveolar lavage (total BAL cellularity) (BLM-induced lung injury) | histological examination by H&E staining (BLM-induced lung injury) | fibrosis: collagen fibers, Masson's Trichrome and Picrosirius red staining, semiquantitative (BLM-induced lung injury) | MPO activity in lungs (BLM-induced lung injury) | ratio between wet and dry lung (BLM-induced lung injury)
1 | [2H]C1([2H])OC(Cn2cnc3c2c(=O)n(C)c(=O)n3C)OC1([2H])[2H] [d4-doxophylline] | 49.2 µg·h/mL | 7420 ng/mL | 1.67 mL/min/kg | 6.2 h | 236 µg·h/mL | 1.17 mL/min/kg | 15800 ng/mL | 10.8 h | of lesser extent and lacked statistical significance | decrease in the inflammatory interstitial infiltrate | slight tendency toward reduction in thickness and packing of collagen fibers |  | 
2 | [2H]C1([2H])OC([2H])(C([2H])([2H])n2cnc3c2c(=O)n(C)c(=O)n3C)OC1([2H])[2H] [d7-doxophylline] | 47 µg·h/mL | 8260 ng/mL | 1.67 mL/min/kg | 6.5 h | 222 µg·h/mL | 1.17 mL/min/kg | 13000 ng/mL | 12.6 h | significantly reverted | decrease in the inflammatory interstitial infiltrate | slight tendency toward reduction in thickness and packing of collagen fibers | decreased | decreased liquid accumulation
3 | Cn1c(=O)c2c(ncn2CC2OCCO2)n(C)c1=O [doxophylline] | 47.7 µg·h/mL | 7500 ng/mL | 1.67 mL/min/kg | 6.2 h | 217 µg·h/mL | 1.17 mL/min/kg | 14000 ng/mL | 11 h | significantly reverted | decrease in the inflammatory interstitial infiltrate | slight tendency toward reduction in thickness and packing of collagen fibers | decreased | decreased liquid accumulation

Source: publication PMC9377007, “An Unexpected Deuterium-Induced Metabolic Switch in Doxophylline” (ACS Medicinal Chemistry Letters, 2022)
